According to article PMC2606922 (Molecular pharmacology, 2008):

Experiments:
[1] = molecular target: adult mouse receptors with two δ-subunits (lacking the ε-subunit) (Mus musculus, UniProt P02716+P04756); assay: outside-out patch clamp, relative peak current; assay type: biochemical; conditions: 300 μM ACh, -50 mV, 22-25°C, pH 7.3
[2] = molecular target: adult mouse muscle nAChR, (α1)2β1εδ (Mus musculus, UniProt P02716+P04756+P20782); assay: outside-out patch clamp, relative peak current; assay type: biochemical; conditions: 300 μM ACh, -50 mV, 22-25°C, pH 7.3
Chain of adult mouse muscle nAChR, (α1)2β1εδ (P04756 21-457): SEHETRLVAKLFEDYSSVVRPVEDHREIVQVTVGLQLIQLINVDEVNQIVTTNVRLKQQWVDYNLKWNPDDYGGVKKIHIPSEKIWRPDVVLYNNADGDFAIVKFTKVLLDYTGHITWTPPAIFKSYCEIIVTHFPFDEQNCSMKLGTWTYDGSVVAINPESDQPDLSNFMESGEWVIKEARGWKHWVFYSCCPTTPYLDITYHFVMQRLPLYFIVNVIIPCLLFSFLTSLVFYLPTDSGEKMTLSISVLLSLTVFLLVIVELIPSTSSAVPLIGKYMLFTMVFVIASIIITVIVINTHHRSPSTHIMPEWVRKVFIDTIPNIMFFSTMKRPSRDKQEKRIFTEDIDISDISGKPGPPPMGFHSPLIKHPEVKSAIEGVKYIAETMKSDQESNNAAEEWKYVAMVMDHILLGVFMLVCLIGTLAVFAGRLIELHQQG
Chain of adult mouse muscle nAChR, (α1)2β1εδ (P20782 21-493): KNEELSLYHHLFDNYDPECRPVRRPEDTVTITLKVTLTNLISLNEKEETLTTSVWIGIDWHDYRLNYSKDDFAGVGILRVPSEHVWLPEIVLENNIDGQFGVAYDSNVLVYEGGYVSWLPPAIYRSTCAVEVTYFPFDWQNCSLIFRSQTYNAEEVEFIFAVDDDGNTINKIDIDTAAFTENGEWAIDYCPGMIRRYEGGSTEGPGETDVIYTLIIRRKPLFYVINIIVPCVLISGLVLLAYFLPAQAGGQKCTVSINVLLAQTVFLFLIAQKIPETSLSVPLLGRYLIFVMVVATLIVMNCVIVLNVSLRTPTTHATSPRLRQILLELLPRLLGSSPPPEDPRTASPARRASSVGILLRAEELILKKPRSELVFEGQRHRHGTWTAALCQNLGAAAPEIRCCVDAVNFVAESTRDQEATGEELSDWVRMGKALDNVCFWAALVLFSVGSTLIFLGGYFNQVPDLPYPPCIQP
Chain of adult mouse muscle nAChR, (α1)2β1εδ (P02716 25-520): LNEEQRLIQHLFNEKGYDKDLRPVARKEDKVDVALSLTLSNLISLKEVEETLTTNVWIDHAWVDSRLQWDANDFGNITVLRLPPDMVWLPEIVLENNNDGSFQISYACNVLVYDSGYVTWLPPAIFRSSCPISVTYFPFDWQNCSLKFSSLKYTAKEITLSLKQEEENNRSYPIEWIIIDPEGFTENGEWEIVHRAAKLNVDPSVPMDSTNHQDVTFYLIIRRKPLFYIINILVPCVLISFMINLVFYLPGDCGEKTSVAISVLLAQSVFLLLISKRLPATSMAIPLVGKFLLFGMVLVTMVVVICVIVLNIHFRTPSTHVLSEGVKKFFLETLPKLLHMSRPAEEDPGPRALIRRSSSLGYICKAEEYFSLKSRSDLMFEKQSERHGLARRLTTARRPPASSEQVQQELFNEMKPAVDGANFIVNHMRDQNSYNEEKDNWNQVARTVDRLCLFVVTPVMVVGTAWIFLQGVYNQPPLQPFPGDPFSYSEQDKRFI
Chain of adult mouse muscle nAChR, (α1)2β1εδ (P09690 24-501 partner): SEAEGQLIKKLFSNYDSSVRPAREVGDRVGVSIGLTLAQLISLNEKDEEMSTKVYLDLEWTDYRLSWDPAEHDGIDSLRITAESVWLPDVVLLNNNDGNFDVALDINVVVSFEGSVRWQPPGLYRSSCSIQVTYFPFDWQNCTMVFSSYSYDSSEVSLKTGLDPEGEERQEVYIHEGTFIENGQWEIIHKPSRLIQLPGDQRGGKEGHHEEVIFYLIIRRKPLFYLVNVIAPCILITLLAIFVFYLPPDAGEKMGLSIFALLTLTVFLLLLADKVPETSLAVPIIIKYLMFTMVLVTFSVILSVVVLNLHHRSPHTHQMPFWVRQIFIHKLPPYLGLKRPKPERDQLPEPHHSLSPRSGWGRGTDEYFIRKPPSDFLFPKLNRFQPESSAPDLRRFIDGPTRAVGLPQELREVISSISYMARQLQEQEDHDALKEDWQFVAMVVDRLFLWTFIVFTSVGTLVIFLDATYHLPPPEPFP

Chain of adult mouse receptors with two δ-subunits (lacking the ε-subunit) (P04756 21-457): as the sequence (P04756 21-457) above
Chain of adult mouse receptors with two δ-subunits (lacking the ε-subunit) (P02716 25-520): as the sequence (P02716 25-520) above
Chain of adult mouse receptors with two δ-subunits (lacking the ε-subunit) (P09690 24-501 partner): as the sequence (P09690 24-501 partner) above

Structure (SMILES): C=CC[N+]1([C@H]2C[C@H]3[C@@H]4CC[C@H]5C[C@H](O)[C@@H](N6CCOCC6)C[C@]5(C)[C@H]4CC[C@]3(C)[C@H]2OC(C)=O)CCCC1 [rocuronium]
- current relative to control at 40 nM [1]: 0.16 ± 0.01
- current relative to control at 40 nM [2]: 0.32 ± 0.05
